Consider 3 compounds from patent publication US4339576A, “Anti-asthmatic, anti-allergic, anti-cholinergic, bronchodilator and anti-inflammatory 1-[(benzoylphenyl)-lower-alkyl]piperidines and analogs thereof” (Sterling Drug Inc., priority 1981, dated 1982).

Usually ED50 stands for the dose that gives a 50% effect, or the effect in half of the subjects.

Series [1] has as its system acetylcholine-induced abdominal constriction. The series is described as follows: Acetylcholine-induced abdominal constriction test (Ach). The series is classed as in vivo, mice. The settings on record: Mus musculus.
The subject of series [2] is adjuvant-induced arthritis. The series can be described thus: Inhibition of adjuvant-induced arthritis (A.A.). Format: in vivo. The settings on record: Rattus norvegicus, oral, rats, read-out: percent inhibition, A.A.; for inhibition in vivo at 80 µmol/kg: .08 millimoles/kg.
The subject of series [3] is carrageenin-induced foot edema. The series is described as follows: Inhibition of carrageenin-induced foot edema (C.E.). The series is classed as in vivo, rats. The conditions noted are these: Rattus norvegicus, oral, rats, read-out: percent inhibition, C.E.; for inhibition in vivo at 80 µmol/kg: .08 millimoles/kg; for inhibition in vivo at 324 µmol/kg: .324 millimoles/kg. (In general: In the carrageenan paw model, swelling and tenderness develop within hours.)

For another series, the system named is bradykinin. The series can be described thus: Anti-bradykinin test (BDK). Format: in vivo. The conditions noted are these: po.
The subject of series [4] is passive cutaneous anaphylaxis. The series is described as follows: Passive cutaneous anaphylaxis test (PCA). The series is classed as in vivo. Also noted: key: Actv.: active; Weak: weakly active; Inac.: inactive. The settings on record: rats.
The subject of the next series is human basophils. The series is described as follows: In vitro histamine release from human basophils test. The series is classed as cell-based. The settings on record: read-out: AEC50 (Approximate Effective Concentration resulting in 50% inhibition of allergic release of histamine).
The subject of series [5] is histamine induced bronchoconstriction. The series is described as follows: Histamine induced bronchoconstriction test in anesthetized dogs. The series is classed as in vivo. The conditions noted are these: Canis lupus familiaris, intraduodenal, intraduodenally, read-out: AED40 (Approximate Effective Dose resulting in 40% inhibition of bronchoconstriction).
Series [6] in a line: Toxicity observations in the carrageenin edema test. Format: in vivo. The conditions noted are these: animals dead, C.E. test, .324 millimoles/kg, oral, rats. Here is the method:
Anti-inflammatory activity was determined using (1) the inhibition of carrageenin-induced foot edema test described by Winter et al., Proc. Soc. […] Therap. […] J. Vet.
All data were obtained on oral administration in rats.

SMILES strings stand for the structures. Counter-ions that a name gives are not always drawn.

Turning to `CC(CN1CCC(CN2CCCCC2)CC1)c1cccc(C(=O)c2ccccc2)c1` (centres unmarked) [Example 2, 1-[2-(3-benzoylphenyl)propyl]-4-(1-piperidinylmethyl)piperidine dihydrochloride], the median effective dose (ED50) in series [1] (po) came to 22 mg/kg; in series [1] (sc), 11 mg/kg; in the series on bradykinin, 24 mg/kg. The inhibition in vivo at 20 µmol/kg in series [2] (.02 millimoles/kg) was 59%. Besides, the inhibition in vivo at 40 µmol/kg in series [2] (.04 millimoles/kg) is 67%. Moreover, the inhibition in vivo at 80 µmol/kg turned out to be 95% in series [2] and 47% in series [3]. Further, the inhibition in vivo at 324 µmol/kg came out at 9% in series [2] (.324 millimoles/kg) and 64% in series [3].
Turning to `CC(=O)NC1CCN(CC(C)c2ccc(C(=O)c3ccccc3)cc2)CC1.Cl.O` (centres unmarked) [Example 3C, 1-[2-(4-Benzoylphenyl)propyl]-4-acetylaminopiperidine hydrochloride monohydrate], the “PCA activity (qualitative statement)” value in series [4] was “Inac”. Besides, the ED50 in series [1] (po) stood at 5.6 mg/kg; in the series on bradykinin it was 46 mg/kg. Moreover, the inhibition in vivo at 80 µmol/kg is 19% in series [2] and 41% in series [3]. For the same compound, the EC50 with human basophils is above 10 µM. Besides, in series [5], the ED40 was around 5 mg/kg. Also, in series [3], the inhibition in vivo at 324 µmol/kg was 53%.
As to `CC(=O)NC1CCN(CC(C)c2cccc(C(=O)c3ccccc3)c2)CC1.Cl` (centres unmarked) [Example 3A, 1-[2-(3-benzoylphenyl)propyl]-4-acetylaminopiperidine hydrochloride], the ED50 in series [1] (po) was 3.6 mg/kg; in the series on bradykinin it was 24 mg/kg. Moreover, the dead in series [6] was 2/8. Also, the inhibition in vivo at 80 µmol/kg in series [2] is 75%; in series [3], 29%. In series [3], the inhibition in vivo at 324 µmol/kg came to 58%.
